Each block holds one compound with its values, some of them ahead of it. Active and inactive are the calls of the source.
What was measured:
[1] = ARNT/TACC3 interaction disruptors, potency, confirmation, biochemical, AlphaScreen, cherry-picked samples (AID 651703); assay type: functional, Homo sapiens;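 note: His-tagged ARNT PAS-B domain paired with GST-TACC3 E629A dimer coactivator fragment; potency of inhibitors that break up the complex and lower AlphaScreen signal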
[2] = target: Melanin-concentrating hormone receptor 1 (Homo sapiens, UniProt Q99705); assay: Late-stage fluorescence-based counterscreen for antagonists of the G-protein coupled receptor 7 (GPR7): cell-based dose response assay to identify antagonists of the melanin-concentrating hormone receptor 1 (MCHR1) Set 5.; assay type: functional
[3] = target: T1, Neuropeptides B/W receptor type 1 (Homo sapiens, UniProt P48145); assay: GPR7 antagonist potency, late-stage follow-up, cell-based, fluorescence, dose response, set 5 (AID 588566); assay type: functional
T1 sequence (P48145 whole entry): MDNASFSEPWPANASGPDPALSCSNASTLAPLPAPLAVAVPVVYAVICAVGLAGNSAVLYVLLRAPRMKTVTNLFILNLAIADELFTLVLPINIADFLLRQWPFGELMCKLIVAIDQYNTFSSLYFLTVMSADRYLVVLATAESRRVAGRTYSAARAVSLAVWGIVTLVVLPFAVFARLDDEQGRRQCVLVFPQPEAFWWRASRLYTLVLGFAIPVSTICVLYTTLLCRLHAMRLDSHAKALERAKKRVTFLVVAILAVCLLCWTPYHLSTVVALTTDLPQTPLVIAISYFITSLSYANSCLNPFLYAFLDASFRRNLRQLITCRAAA

[4] = target: T2, ATP-dependent translocase ABCB1 (Homo sapiens, UniProt P08183); assay: ABCB1 efflux inhibitor potency, dose response, Jurkat-DNR cells, JC-1, flow cytometry, set 2 (AID 504569); assay type: functional; conditions: read-out: EC50_MICROM_;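 note: potency of pump inhibitors that raise cellular JC-1 green fluorescence up to the nicardipine level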
[5] = target: T2, ATP-dependent translocase ABCB1; assay: ABCG2 efflux pump inhibitor potency, dose response, Ig-MXP3 cells, JC-1, flow cytometry, set 2 (AID 504566); assay type: functional; conditions: read-out: EC50_MICROM_;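 note: flow cytometry median green fluorescence of retained JC-1 dye; potency of efflux pump inhibition measured as rising substrate retention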
[6] = target: T3, Calpain-2 catalytic subunit (Sus scrofa, UniProt P43367); assay: pig calpain II inhibitor potency, dose response, biochemical, fluorogenic peptide substrate (AID 1420); assay type: functional
T3 sequence (P43367 whole entry): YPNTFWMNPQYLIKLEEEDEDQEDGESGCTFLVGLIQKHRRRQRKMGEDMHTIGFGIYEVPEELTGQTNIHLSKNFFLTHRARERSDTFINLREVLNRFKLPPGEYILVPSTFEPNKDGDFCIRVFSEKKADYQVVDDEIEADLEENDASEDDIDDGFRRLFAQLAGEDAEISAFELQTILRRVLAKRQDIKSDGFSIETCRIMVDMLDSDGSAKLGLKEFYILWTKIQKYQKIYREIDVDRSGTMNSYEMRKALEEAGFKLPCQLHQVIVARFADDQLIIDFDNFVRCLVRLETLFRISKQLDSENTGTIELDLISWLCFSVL

[7] = target: Mitochondrial peptide methionine sulfoxide reductase (Bos taurus, UniProt P54149); assay type: functional;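 note: absorbance read-out, biochemical high-throughput dose-response screen for MsrA inhibitors, confirmatory; recombinant bovine MsrA coupled to E. coli TrxB with NADPH and selenocystamine; potency is for inhibitors of MsrA activity on DMSO substrate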
Activin receptor type-1 = Activin receptor type-1 (Homo sapiens, UniProt Q04771); assay: Navigating the Kinome. Panel member name: ACVR1; assay type: functional
Activin receptor type-1, sequence (Q04771 whole entry): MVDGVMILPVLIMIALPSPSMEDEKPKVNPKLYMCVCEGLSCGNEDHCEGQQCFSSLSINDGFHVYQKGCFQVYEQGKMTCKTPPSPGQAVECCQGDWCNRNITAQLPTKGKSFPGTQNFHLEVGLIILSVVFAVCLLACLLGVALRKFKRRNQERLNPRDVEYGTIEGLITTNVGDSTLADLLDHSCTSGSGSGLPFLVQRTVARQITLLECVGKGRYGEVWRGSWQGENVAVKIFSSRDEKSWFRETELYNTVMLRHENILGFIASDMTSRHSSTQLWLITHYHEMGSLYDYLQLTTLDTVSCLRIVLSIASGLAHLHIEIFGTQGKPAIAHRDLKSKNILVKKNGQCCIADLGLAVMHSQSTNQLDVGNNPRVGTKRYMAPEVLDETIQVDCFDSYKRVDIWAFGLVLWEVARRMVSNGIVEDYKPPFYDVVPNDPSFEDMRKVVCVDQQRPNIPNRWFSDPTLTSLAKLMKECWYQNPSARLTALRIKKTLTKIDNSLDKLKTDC

T2 sequence (P08183 whole entry): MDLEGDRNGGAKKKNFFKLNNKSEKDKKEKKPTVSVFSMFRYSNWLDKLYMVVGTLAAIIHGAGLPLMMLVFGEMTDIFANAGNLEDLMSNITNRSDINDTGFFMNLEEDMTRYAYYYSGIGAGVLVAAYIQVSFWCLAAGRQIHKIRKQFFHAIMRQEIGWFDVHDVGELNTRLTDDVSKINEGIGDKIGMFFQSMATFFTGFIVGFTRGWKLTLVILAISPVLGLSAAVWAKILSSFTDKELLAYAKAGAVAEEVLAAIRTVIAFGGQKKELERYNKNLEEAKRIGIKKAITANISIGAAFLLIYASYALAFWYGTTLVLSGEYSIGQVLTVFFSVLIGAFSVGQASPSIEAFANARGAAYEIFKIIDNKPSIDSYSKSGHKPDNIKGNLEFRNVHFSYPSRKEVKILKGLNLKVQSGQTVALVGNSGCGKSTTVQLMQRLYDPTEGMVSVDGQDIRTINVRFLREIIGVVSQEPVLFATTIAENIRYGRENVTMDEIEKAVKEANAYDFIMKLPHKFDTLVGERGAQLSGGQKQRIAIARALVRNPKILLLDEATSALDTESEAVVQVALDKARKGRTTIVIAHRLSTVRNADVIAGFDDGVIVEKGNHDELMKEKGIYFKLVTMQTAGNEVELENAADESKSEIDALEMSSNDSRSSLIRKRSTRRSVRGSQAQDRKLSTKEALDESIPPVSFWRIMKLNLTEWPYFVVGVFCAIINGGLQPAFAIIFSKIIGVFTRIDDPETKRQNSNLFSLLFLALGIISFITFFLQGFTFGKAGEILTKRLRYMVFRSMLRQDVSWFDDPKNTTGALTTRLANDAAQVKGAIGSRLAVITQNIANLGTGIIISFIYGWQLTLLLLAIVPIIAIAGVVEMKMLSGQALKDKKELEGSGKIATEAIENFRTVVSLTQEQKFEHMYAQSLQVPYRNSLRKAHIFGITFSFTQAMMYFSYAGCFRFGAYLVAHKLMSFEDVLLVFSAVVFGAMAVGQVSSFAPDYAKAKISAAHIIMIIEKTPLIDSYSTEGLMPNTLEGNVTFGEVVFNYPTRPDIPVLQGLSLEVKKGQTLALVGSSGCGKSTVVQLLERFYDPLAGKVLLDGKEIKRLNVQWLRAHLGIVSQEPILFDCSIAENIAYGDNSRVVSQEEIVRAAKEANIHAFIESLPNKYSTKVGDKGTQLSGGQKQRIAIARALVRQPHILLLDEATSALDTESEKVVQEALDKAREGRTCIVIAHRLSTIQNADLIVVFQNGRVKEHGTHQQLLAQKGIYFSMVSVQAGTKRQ
Melanin-concentrating hormone receptor 1, sequence (Q99705 whole entry): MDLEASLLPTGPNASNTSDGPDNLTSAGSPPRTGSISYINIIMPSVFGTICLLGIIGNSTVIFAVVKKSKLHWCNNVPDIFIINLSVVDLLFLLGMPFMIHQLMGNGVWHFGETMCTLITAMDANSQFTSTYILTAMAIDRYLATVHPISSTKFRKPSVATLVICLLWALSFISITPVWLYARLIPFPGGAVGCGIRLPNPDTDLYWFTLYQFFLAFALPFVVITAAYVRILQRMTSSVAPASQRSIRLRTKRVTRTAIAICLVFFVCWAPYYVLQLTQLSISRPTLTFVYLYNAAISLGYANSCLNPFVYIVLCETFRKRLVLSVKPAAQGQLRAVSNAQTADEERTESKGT
Mitochondrial peptide methionine sulfoxide reductase, sequence (P54149 whole entry): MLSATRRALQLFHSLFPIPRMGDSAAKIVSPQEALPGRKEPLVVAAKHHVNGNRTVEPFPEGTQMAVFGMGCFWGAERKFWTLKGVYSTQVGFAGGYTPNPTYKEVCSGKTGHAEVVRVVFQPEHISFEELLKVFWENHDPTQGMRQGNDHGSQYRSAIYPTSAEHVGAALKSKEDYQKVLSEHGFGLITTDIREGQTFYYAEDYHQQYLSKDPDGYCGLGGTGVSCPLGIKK

Structure (SMILES): NC(=O)c1[nH]cnc1N
- AC50 [1]: 90.5 µM (active)

- IC50 [2]: 7.86 µM (active)
- IC50 [3]: 2.9 µM (active)
Structure (SMILES): CCOC(=O)C(C#N)c1c(Cl)cnn(C2c3ccccc3-c3ccccc32)c1=O (stereo not given)

- IC50 [2]: > 20 µM (inactive)
- IC50 [3]: > 20 µM (inactive)
Structure (SMILES): O=C(C1CCCCN1C1c2ccccc2CCc2ccccc21)N1CCN(c2ccc([N+](=O)[O-])cc2)CC1 (stereo not given)

- EC50 [4]: 4.32 µM (active)
- EC50 [5]: 1.17 µM (active)
Structure (SMILES): COc1cccc(-c2cc3nc(-c4ccccc4)cc(N4CCN(C(=O)c5ccco5)CC4)n3n2)c1

- IC50 [6]: > 50 µM (not active)
- IC50 [7]: 155 µM (inactive)
Structure (SMILES): CCOC(=O)C(C)/C(C)=N\Nc1ccc([N+](=O)[O-])cc1[N+](=O)[O-] (stereo not given)

- Ki (Activin receptor type-1): > 3.98 µM (inactive)
Structure (SMILES): C=CCn1c(=O)c2cnc(Nc3ccc(N4CCN(C)CC4)cc3)nc2n1-c1cccc(C(C)(C)O)n1 [ADAVOSERTIB]
